Data taken from a melting point compilation (Tetko et al.; mined from patent text by program, amines drawn as free bases though some values may be those of a salt).

Row | Structure (SMILES) | melting point [°C]
1 | Cc1ccn(-c2ccc(C(=O)N3Cc4cccnc4Oc4ccccc43)c(Cl)c2)n1 | 220 to 222
2 | COc1ccc(-n2c(N)nc3ccccc32)cc1-c1ccco1 | 218 to 221
3 | CNC(=NC#N)NCc1cccc(-c2csc(N=C(N)N)n2)n1 | 245 to 246
4 | CCNC(=O)c1cnn(C)c1 | 103 to 106
5 | CNC(=O)[C@H](Cc1ccc2ccccc2c1)NC(=O)C(CCOc1c(F)c(F)c(F)c(F)c1F)CC(=O)O (stereo partly specified) | 68 to 69
6 | Cc1noc(-c2ccc(I)cc2)n1 | 136 to 137
7 | OCC(CO)OCn1c(Cl)nc2c(Cl)c(Cl)c(Cl)c(Cl)c21 | 155
8 | O=C(CN1CCN(C(=O)CCCCCS)CC1)Nc1nc2ccccc2s1 | 89 to 92
9 | COc1cc(C(C)=O)ccc1NCCCN1CCC(c2noc3cc(F)ccc23)CC1 | 96 to 98
10 | Cc1nc2ncnn2c(N2CCC(C)CC2)c1C1CCCC1 | 145
11 | Oc1ccc(-c2nnc(CSCCOc3ccccc3)n2Cc2ccccc2)cc1 | 64 to 66
12 | COc1ccc(C(=O)Oc2ccc(COc3ccc4c(c3)CCC(CN(C)C)C4)cc2)cc1 (stereo unspecified) | 119 to 121
13 | Cn1cncc1C(O)(c1ccc(C=O)cc1)c1ccc2c(c1)c(-c1cccc(Cl)c1)nc1nnnn12 (stereo unspecified) | 170
14 | COC(=O)C1C=CCn2c(=O)n(CCl)c(=O)n21 (stereo unspecified) | 164 to 165
15 | O=C1C2=NCCCN2c2cc(Cl)c([N+](=O)[O-])cc21 | 152 to 165
16 | CCC1(C(=O)C=Cc2ccc(C(=O)O)cc2)CC1 | 184
17 | O=C(O)[C@H]1Cc2ccccc2CN1S(=O)(=O)c1ccc([N+](=O)[O-])cc1 | 140
18 | Cc1c(C(=O)c2ccccc2)[nH]c(CC(=O)O)c1C(=O)O | 250 to 253
19 | CSc1cccc(COCCCO)c1NC(=O)CC1c2ccccc2Oc2ccccc21 | 207 to 208
20 | CCOc1c(/C=C/c2ccc(NS(C)(=O)=O)cc2)cc(-n2ccc(=O)[nH]c2=O)cc1C(C)(C)C | 265 to 266
21 | Cc1c(O)ccc2oc(-c3ccc(O)cc3)cc12 | 221 to 222
22 | CC1(C)Cc2ccoc2C(=O)N1 | 133 to 134
23 | CCS(=O)(=O)C1C(OC)(OC)CC2C3CCC4=CC(=O)C=CC4(C)C3(F)C(O)CC21C (stereo unspecified) | 268 to 270
24 | O=C(Nc1ccncc1)Nc1c(Cl)cccc1Cl | 217 to 219

Row | Structure (SMILES) | melting point [°C]
25 | COc1cccc(Nc2ccc(Nc3ncnc4cc(-c5ccccc5)sc34)cc2)c1 | 189 to 191
26 | COC(=O)c1sc(C)c(Br)c1SC(=O)N(C)C | 175 to 176
27 | C=CCOc1ccc2cn[nH]c2c1 | 110 to 112
28 | COc1ccc(CN(CCN(C)C)c2ccc(C(=O)O)cn2)cc1 | 188 to 190
29 | CCOC(=O)c1ncc2[nH]c3ccc(C#N)cc3c2c1COC | 252 to 255
30 | CCn1nc(OCCCc2ccc(OCCOC)cc2OCc2ccc(Cl)cc2Cl)cc1CCC(=O)O | 114 to 116
31 | O=C(CBr)Nc1ccc(Cl)cc1C(=O)c1c(F)cccc1F | 146 to 148
32 | Cc1c(C(=O)O)sc2cncc(Oc3ccc(Cl)cc3)c12 | 315 to 317
33 | CC(=O)NC(C(=O)NC1c2cc(C#N)ccc2OC(C)(C)C1O)c1ccccc1 (stereo unspecified) | 133 to 145
34 | [N-]=[N+]=N[C@@H]1c2cc(F)ccc2Oc2ccccc2[C@H]1C[C@@H](O)COC(c1ccccc1)(c1ccccc1)c1ccccc1 | 58 to 59
35 | COc1cc(C=CC(=O)c2c(OCC=C(C)C)ccc3c(=O)c4ccccc4oc23)cc(OC)c1OC | 153 to 155
36 | COC(=O)c1cc(=NS(=O)(=O)c2ccc(C)cc2)c2c(Cl)cc(Cl)cc2[nH]1 | 210 to 212
37 | Cc1ccc2c(C3CCN(CC#N)CC3)cn(-c3ccc(F)cc3)c2c1 | 101 to 103
38 | CC(NC(=O)C1CCNCC1)c1ccccc1 (stereo unspecified) | 136
39 | CC#CCOc1cc(Oc2cccc(C(C)=O)c2)ncn1 | 94
40 | CCC(CC)n1ccn(-c2ccc(N3CCN(c4ccc(OC)cc4)CC3)cc2)c1=O | 196
41 | Cc1cc(C)c2c(-c3cc(C(C)(C)C)c(O)c(C(C)(C)C)c3)n[nH]c2n1 | 257 to 258
42 | Nc1cncc(C(O)c2ccccc2)c1 (stereo unspecified) | 92 to 94
43 | CCCc1c(CSc2nnc(SCc3ccc(OC(C)C(=O)O)cc3)s2)ccc(C(C)=O)c1O (stereo unspecified) | 138
44 | CC(=O)OC1CSC(Oc2ccnc(Br)c2)C(OC(C)=O)C1OC(C)=O (stereo unspecified) | 162
45 | O=C(O)c1ccc(OCCCCl)cn1 | 120 to 121
46 | COC(=O)c1c(C2CC2)nn2ccc3c(c12)CCO3 | 170 to 172
47 | COC(=O)c1csc(NC(=O)c2cc(OC)c(OC)cc2OC)n1 | 251 to 252
48 | COc1c(C(O)c2ncc([N+](=O)[O-])n2C)cc(O)cc1C(C)(C)C (stereo unspecified) | 125 to 128

Row | Structure (SMILES) | melting point [°C]
49 | CCCc1nn(CC)c2c(=O)[nH]c(-c3cc(S(=O)(=O)N4CCN(CCO)CC4)ccc3OCC)nc12 | 191 to 193
50 | CCCCCCCCCCCCCCn1ccc(C(=O)OCC)c1 | 32 to 33
51 | Cc1nc(-c2ccccc2)n(C)c1C=NOCCO | 95 to 97
52 | OCC1OC(n2c(Cl)nc3ccc(Cl)cc32)C(O)C1O (stereo unspecified) | 162 to 163
53 | O=C(N[C@H]1CC[C@H](CCN2CCN(c3nccc4c3CCO4)CC2)CC1)c1ccc2c(c1)OCO2 | 244
54 | O=C(O)C1CN(c2ccc(-c3noc(CN4C(=O)c5ccccc5C4=O)n3)cc2)C(=O)O1 (stereo unspecified) | 130 to 135
55 | COc1ccc(C(=O)NCCc2ccc(-c3ccc(O)cc3)cc2)cc1OC | 170
56 | COC(=O)c1oc2ccc(Cl)cc2c1-c1ccccc1C | 212 to 214
57 | C[C@@H](F)c1nc(N)nc(N[C@H]2c3ccccc3C[C@@H]2C)n1 | 146 to 150
58 | COc1cc(C)c(C(=O)c2c(Cl)cccc2Cl)c(O)c1OC | 161
59 | CCCOc1ncc(I)cc1-c1nc2c(CC)n(Cc3ccccn3)nc2c(=O)[nH]1 | 229 to 234
60 | O=[N+]([O-])c1ccc(Oc2ccc3c(c2)OCC(c2ccccc2)O3)nc1 (stereo unspecified) | 163 to 170
61 | CCNC(=O)N(C)C1c2ccccc2Oc2ccccc21 | 139 to 141
62 | CCCCCc1c(/C=C/C(=O)Oc2ccc([N+](=O)[O-])cc2)oc2cc(OC)ccc12 | 120 to 122
63 | COc1cc2c(=O)n(C)c(-c3ccc(OC4CCN(C5CCC5)CC4)cc3)nc2cn1 | 146 to 148
64 | CCOC(=O)c1oc(I)nc1C | 110 to 112
65 | CCc1nc2c(cnn2CC)c(NC2CCOCC2)c1CNC(=O)c1cccc(C(=O)NCc2ccc(C)c(-c3cccc(CN4CCCN(C)CC4)c3)c2)c1 | 107 to 109
66 | CCN1C(=O)C(C)(C)C(=O)N(C)c2cc(CN(CCn3ccc4oc(C)cc4c3=O)Cc3cnccc3Cl)ccc21 | 114 to 118
67 | O=c1c2ccc(O)cc2oc2c1oc1c3ccccc3ccc21 | > 300
68 | CCCCc1ncc[nH]1 | 35 to 37
69 | c1ccc(-c2coc3cc4c(cc23)CCC4)cc1 | 43 to 46
70 | COc1cc(Nc2nccc(NS(=O)(=O)c3ccccc3)n2)cc(OC)c1OC | 164
71 | COc1cccc(N(C)C(=O)c2cnc(Br)s2)c1 | 106
